Test results reported in patent US7135615B2, “Chromosome doubling method” (The Curators of the University of Missouri, priority 2001, dated 2006).
Values joined by “and” are separate entries in the source; they are usually repeats but may differ in a detail not shown here. Equal entries are not always repeated. Marks after values point to notes of the source that are not given here.

Legend:
[1] = system: maize B55 haploid seedlings; experiment: nitrous oxide gas treatment at 3–8 leaf stages, B55 haploids (Example 3); details: for Ear (open pollinated): No. of fertile sectors /ear / Ear (open pollinated): No. of kernels produced /ear / Ear (open pollinated): Plants with fertile sectors % / No. of tassel branch Average / Plant height (cm) Average / Tassel: No. of fertile anthers extruded/tassel / Tassel: No. of fertile sectors/tassel / Tassel: Plants with fertile sectors % / Ear (open pollinated): Plants with fertile sectors No. / Tassel: Plants with fertile sectors No. / No. of plants Survived: 600 kPa, 2 days
From the text: Leaf stages were defined as follows, At the 3 leaf stage, there are three elongated leaves and the tip of the fourth leaf appears at the center of the leaf whorl. This stage is defined as V2 according to Ritchie et al. (1997). At the 8 leaf stage, there are 8 elongated leaves and the tip of the 9th and 10th leaves appear at the center of the leaf whorl (late V5 stage). At the 6 leaf stage, six elongated leaves are observable, and the tip of seventh leaf appears at the leaf whorl (late V4 or early V5 stage). Nine to sixteen haploid plants were treated at each stage using a large air tight iron chamber (FIG. 3). […] Moistened calcium hydroxide (50 g) wrapped in a paper towel was included to absorb carbon dioxide that is produced by the seedlings, as carbon dioxide at high concentration will injure the seedlings during the treatment. The soil of the pots was dried prior to treatment to prevent root injuries. […] The gas was introduced slowly into the chamber over a 10 minutes time frame.
After the treatment, seedlings were transplanted into larger pots, and grown in a greenhouse. A relatively cool temperature (below 25° C.) was maintained to permit the appropriate development of doubled sectors. At flowering, the ears were cross pollinated by an appropriate pollen source to reveal all the fertile sectors on the ears. On the treated plants, plant height (cm), tassel size (cm), number of tassel branches, ear length (cm), the number of fertile sectors on a tassel and an ear, the number of anthers on a tassel, and the number of kernels on an ear were recorded.
Analyses of variance and Duncan's Multiple Range Tests were performed to determine the effects of treatments on the plant height (cm), tassel size (cm), and ear length (cm). Chi square tests were used to determine the effects of treatments upon the proportion of plants that developed fertile tassel and ear sectors. The ratios of untreated plants with fertile sectors were used to estimate the significance of the ratio of treated plants with fertile sectors.
Nonparametric tests were performed to compare the distributions. The primary test was the Kruskal-Wallis test. In the initial tests, the null hypothesis considered was that the distributions would be the same for each treatment and control. If the null hypothesis was rejected (P<0.05), then pair wise comparisons of each treatment to the control using Dunn's method were conducted. The tassel branch number was low incidence count data and was analyzed using the same nonparametric tests mentioned above.

[2] = system: flowers of grasses; maize haploids; experiment: nitrous oxide procedure, general statement of doubling and selfing rates; format: in vivo, maize (Zea mays L.)
From the text: The technique results from studies carried out for the development of a high-yield technique for chromosome doubling in grasses and particularly, in maize. The new procedure induces doubled sectors on the flowers of grasses at a high rate (50–100%) without injuring seedlings. […] With the technique, large number of plants (1000/day) can be treated by one person. In maize haploids, doubled sectors are induced both on the tassels and ears and self pollination is possible at 30–90% level, whereas no reliable procedure for chromosome doubling had previously been available.

## [N-]=[N+]=O [nitrous oxide gas, nitrous oxide]
[1]; 3 leaf stage
  Ear (open pollinated): No. of fertile sectors /ear: 1.1 /ear
  Ear (open pollinated): No. of kernels produced /ear: 49.0* /ear
  Ear (open pollinated): Plants with fertile sectors %: 67%
  No. of tassel branch Average: 18.8*
  Plant height (cm) Average: 183 cm·days
  Tassel: No. of fertile anthers extruded/tassel: 35.6 /tassel
  Tassel: No. of fertile sectors/tassel: 1.1 /tassel
  Tassel: Plants with fertile sectors %: 67%
[1]; 3 leaf stage, 9 examined
  Ear (open pollinated): Plants with fertile sectors No.: 6
  Tassel: Plants with fertile sectors No.: 6
[1]; 3 leaf stage, 10 treated
  No. of plants Survived: 9
[1]; 3–8 leaf stage treatments
  number of anthers /tassel, span over treatments: 35.6–521 /tassel
  number of kernels on the ears, span over treatments: 10.9–49.0
[1]; 4 leaf stage
  Ear (open pollinated): No. of fertile sectors /ear: 2.8** /ear
  Ear (open pollinated): No. of kernels produced /ear: 21.5** /ear
  Ear (open pollinated): Plants with fertile sectors %: 100** %
  No. of tassel branch Average: 20.1
  Plant height (cm) Average: 168 bc cm
  Tassel: No. of fertile anthers extruded/tassel: 111.5* /tassel
  Tassel: No. of fertile sectors/tassel: 1.5 /tassel
  Tassel: Plants with fertile sectors %: 64%
[1]; 4 leaf stage, 11 examined
  Ear (open pollinated): Plants with fertile sectors No.: 11
  Tassel: Plants with fertile sectors No.: 7
[1]; 4 leaf stage, 11 treated
  No. of plants Survived: 11
[1]; 5 leaf stage
  Ear (open pollinated): No. of fertile sectors /ear: 1.6 /ear
  Ear (open pollinated): No. of kernels produced /ear: 40.4** /ear
  Ear (open pollinated): Plants with fertile sectors %: 89* %
  No. of tassel branch Average: 13.9**
  Plant height (cm) Average: 170 c cm
  Tassel: No. of fertile anthers extruded/tassel: 139.6** /tassel
  Tassel: No. of fertile sectors/tassel: 3.0* /tassel
  Tassel: Plants with fertile sectors %: 100** %
[1]; 5 leaf stage, 9 examined
  Ear (open pollinated): Plants with fertile sectors No.: 8
  Tassel: Plants with fertile sectors No.: 9
[1]; 5 leaf stage, 9 treated
  No. of plants Survived: 9
[1]; 5–7 leaf stages
  frequency of fertile sectors on the tassels: 100%
  number of anthers on the tassels: 140–521 /tassel
  number of kernels on the ears: 40.4–47.5 /ear
[1]; 6 leaf stage
  Ear (open pollinated): No. of fertile sectors /ear: 1.7 /ear
  Ear (open pollinated): No. of kernels produced /ear: 45.5** /ear
  Ear (open pollinated): Plants with fertile sectors %: 90* %
  No. of tassel branch Average: 14.5**
  Plant height (cm) Average: 165 bc cm
  Tassel: No. of fertile anthers extruded/tassel: 521 /tassel and 521.1** /tassel
  Tassel: No. of fertile sectors/tassel: 5.7** /tassel
  Tassel: Plants with fertile sectors %: 100** %
[1]; 6 leaf stage, 10 examined
  Ear (open pollinated): Plants with fertile sectors No.: 9
  Tassel: Plants with fertile sectors No.: 10
[1]; 6 leaf stage, 10 treated
  No. of plants Survived: 10
[1]; 7 leaf stage
  Ear (open pollinated): No. of fertile sectors /ear: 1.8 /ear
  Ear (open pollinated): No. of kernels produced /ear: 47.5** /ear
  Ear (open pollinated): Plants with fertile sectors %: 82%
  No. of tassel branch Average: 14.3**
  Plant height (cm) Average: 168 bc cm
  Tassel: No. of fertile anthers extruded/tassel: 267.3** /tassel
  Tassel: No. of fertile sectors/tassel: 9.6** /tassel
  Tassel: Plants with fertile sectors %: 100** %
[1]; 7 leaf stage, 11 examined
  Ear (open pollinated): Plants with fertile sectors No.: 9
  Tassel: Plants with fertile sectors No.: 11
[1]; 7 leaf stage, 11 treated
  No. of plants Survived: 11
[1]; 8 leaf stage
  Ear (open pollinated): No. of fertile sectors /ear: 2.3** /ear
  Ear (open pollinated): No. of kernels produced /ear: 10.9* /ear
  Ear (open pollinated): Plants with fertile sectors %: 92** %
  No. of tassel branch Average: 20.4*
  Plant height (cm) Average: 137 a cm
  Tassel: No. of fertile anthers extruded/tassel: 283.2** /tassel
  Tassel: No. of fertile sectors/tassel: >18.6** /tassel
  Tassel: Plants with fertile sectors %: 100** %
[1]; 8 leaf stage, 12 examined
  Ear (open pollinated): Plants with fertile sectors No.: 11
  Tassel: Plants with fertile sectors No.: 12
[1]; 8 leaf stage, 12 treated
  No. of plants Survived: 12
[2]; grasses, without injuring seedlings
  rate of doubled sectors induced on the flowers of grasses: 50–100%
[2]; maize haploids, doubled sectors on both tassels and ears
  level at which self pollination is possible: 30–90%
